Data taken from patent US9675629B2, “PH-responsive nanoparticle using mussel adhesive protein for drug delivery and method for preparing the same” (POSTECH ACADEMY-INDUSTRY FOUNDATION, priority 2015, dated 2017).

System: HeLa cells
Assay: Cellular uptake evaluation, cell imaging and flow cytometer analysis
Type: cell-based
Settings: DOX 2 μg/mL
Protocol: For cellular uptake evaluation, cell imaging and flow cytometer analysis were performed. For cell imaging, free DOX and DOX-loaded mfp-1 nanoparticles (DOX concentration 2 μg/mL) were treated for 1 and 3 hours into each cell culture medium after initial cell seeding on 24-well culture plate. Before observation, cells were stained with 5 μg/mL of Hoechst 33258 (Sigma) solution for 30 minutes to clearly discriminate cell nucleus from cytosol. Cell nucleus and location of DOX were observed using fluorescence microscopy (Olympus). Cells treated by same condition with imaging procedures were collected for flow cytometry analysis after detachment by 0.25% trypsin-EDTA treatment. Fluorescence intensity of DOX in the collected cells resuspended in 1 mL PBS was examined by fluorescence scanning with 1×10^4 cells under PerCP-Cy5.5 filter (488 nm excitation and 630 nm emission). Calibration was performed using non-treated cells.

## COc1cccc2c1C(=O)c1c(O)c3c(c(O)c1C2=O)C[C@@](O)(C(=O)CO)C[C@@H]3O[C@H]1C[C@H](N)[C@H](O)[C@H](C)O1 [free DOX, doxorubicin]
1 and 3 hours
  fluorescence intensity of DOX in cells, flow cytometry: higher than DOX-loaded mfp-1 nanoparticles-treated cells
Treated for 1 hour
  location of DOX in cells, fluorescence microscopy: spread over the whole cell area
